Source: ChEMBL document CHEMBL1201862, “PubChem BioAssay data set” (2004)
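Following 48 hours of exposure in 96-well plates, responses at five concentrations were used to interpolate endpoints linearly. Here, GI50 denotes the concentration required for 50% inhibition of growth.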 Calls of active or inactive are those of the source. No stated cut-off is given here; in the data, active = GI50 up to about 1.1 µM and inactive = higher.

Tests used:
Assay in all cases: DTP human tumour cell line panel, 48 h
786-0 = system: 786-0
ACHN = system: ACHN
BT-549 = system: BT-549
DU-145 = system: DU-145
EKVX = system: EKVX
Hs-578T = system: Hs-578T
K562 = system: K562
NCI-H226 = system: NCI-H226
NCI-H522 = system: NCI-H522
OVCAR-3 = system: OVCAR-3
OVCAR-4 = system: OVCAR-4
PC-3 = system: PC-3
SF-268 = system: SF-268
SK-MEL-2 = system: SK-MEL-2
SW-620 = system: SW-620
T47D = system: T47D
UACC-257 = system: UACC-257
UACC-62 = system: UACC-62
SR = system: SR

Measured: GI50

Oc1ccc(NCc2cc(O)ccc2O)cc1
inactive: 786-0 15 µM | ACHN 16.1 µM | BT-549 12.7 µM | DU-145 18.5 µM | EKVX 15.7 µM | Hs-578T 40.9 µM | K562 19.2 µM | NCI-H226 18.9 µM | NCI-H522 2.06 µM | OVCAR-3 17.3 µM | OVCAR-4 16.5 µM | PC-3 14.9 µM | SF-268 17.2 µM | SK-MEL-2 18.2 µM | SW-620 11.5 µM | T47D 19.6 µM | UACC-257 14.9 µM | UACC-62 15.4 µM

Cc1ccc(NC2=NCCO2)c2c1CCC2
inactive: 786-0 56 µM | ACHN 85.3 µM | DU-145 63.2 µM | EKVX 48.4 µM | Hs-578T 22.9 µM | K562 26.7 µM | NCI-H226 32.4 µM | NCI-H522 45.8 µM | OVCAR-3 21.6 µM | OVCAR-4 48.9 µM | PC-3 25.4 µM | SF-268 41.8 µM | SK-MEL-2 20 µM | SR 22.1 µM | SW-620 46.9 µM | T47D 51.3 µM | UACC-62 30.7 µM

NC(=S)N/N=C1\CCc2ccccc2C1
inactive: 786-0 > 100 µM | ACHN > 100 µM | BT-549 > 100 µM | DU-145 > 100 µM | EKVX 27 µM | K562 > 100 µM | NCI-H226 32.2 µM | NCI-H522 55.3 µM | OVCAR-3 > 100 µM | OVCAR-4 > 100 µM | PC-3 > 100 µM | SF-268 > 100 µM | SR > 100 µM | SW-620 > 100 µM | T47D 13 µM | UACC-257 > 100 µM | UACC-62 55 µM

Cc1ccc(SC2C(=O)C3CC(OCc4ccccc4)C2(C)C3(C)C)cc1 (configuration not stated)
inactive: 786-0 > 100 µM | ACHN > 100 µM | BT-549 > 100 µM | DU-145 > 100 µM | EKVX 64.7 µM | Hs-578T > 100 µM | K562 32.9 µM | NCI-H226 > 100 µM | OVCAR-3 > 100 µM | PC-3 12.4 µM | SF-268 > 100 µM | SK-MEL-2 38.7 µM | SR 51.3 µM | SW-620 > 100 µM | T47D 13.1 µM | UACC-62 > 100 µM

C(=N\NC1=NCCCN1)/c1ccc(-c2cn3cc(/C=N/NC4=NCCCN4)ccc3n2)cc1
inactive: 786-0 18.9 µM | ACHN 42 µM | BT-549 > 100 µM | DU-145 26.6 µM | EKVX 45.9 µM | K562 38.4 µM | NCI-H226 45.3 µM | NCI-H522 > 100 µM | OVCAR-3 > 100 µM | OVCAR-4 > 100 µM | PC-3 > 40.1 µM | SF-268 > 100 µM | SK-MEL-2 > 100 µM | SW-620 > 100 µM | T47D > 100 µM | UACC-257 > 100 µM | UACC-62 > 100 µM

C=CCOC(=O)CCCCCCCCCCCCCCCOC(=O)c1c(CCC[C@@H](C)O[Si](C)(C)C(C)(C)C)nc([O-])[n+]2c1CC[C@H]2CC1(CC/C=C\[C@H](CC)O[Si](C(C)C)(C(C)C)C(C)C)OCCO1
inactive: 786-0 26.7 µM | ACHN 35.7 µM | BT-549 > 100 µM | DU-145 > 100 µM | EKVX > 100 µM | NCI-H226 > 100 µM | NCI-H522 > 100 µM | OVCAR-3 50.8 µM | OVCAR-4 > 100 µM | PC-3 > 100 µM | SF-268 > 100 µM | SK-MEL-2 37.2 µM | T47D > 100 µM | UACC-257 > 100 µM | UACC-62 30.4 µM

Cc1cc2nc3c(C#N)c(-c4ccccc4)cc(Nc4ccc(F)cc4)n3c2cc1C
inactive: 786-0 8.49 µM | ACHN 16.4 µM | BT-549 22.6 µM | EKVX 14.6 µM | NCI-H226 27.2 µM | NCI-H522 4.33 µM | OVCAR-3 12.2 µM | OVCAR-4 53.6 µM | SF-268 10.5 µM | SW-620 55.5 µM | T47D > 100 µM | UACC-257 7.5 µM

N#Cc1c2c(c(Nc3cccc(C(F)(F)F)c3)n3c1nc1ccccc13)CCC2
inactive: 786-0 > 100 µM | ACHN > 100 µM | BT-549 60.7 µM | DU-145 > 100 µM | EKVX > 100 µM | NCI-H226 > 100 µM | NCI-H522 > 100 µM | OVCAR-3 > 100 µM | OVCAR-4 > 100 µM | SF-268 > 100 µM | SW-620 > 100 µM | T47D > 100 µM | UACC-257 > 100 µM

Cn1cnnc1SC(F)(F)c1nc2ccccc2o1
inactive: 786-0 > 100 µM | ACHN > 100 µM | BT-549 > 100 µM | DU-145 > 100 µM | K562 > 100 µM | NCI-H226 > 100 µM | NCI-H522 > 100 µM | OVCAR-3 > 100 µM | OVCAR-4 > 100 µM | PC-3 > 100 µM | SF-268 > 100 µM | SK-MEL-2 > 100 µM | SR > 100 µM | SW-620 > 100 µM | T47D > 100 µM | UACC-257 > 100 µM | UACC-62 > 100 µM
